Measured values: patent US6337184B1, “Molecular marker for muscle stem cells” (priority 1997, dated 2002)
“Also recorded” adds a separate entry of the source.

Tests used:
Type in all cases: cell-based, mouse
[1] = tested on: C2C12 cells; experiment: G-418 selection of untransfected and neo-transfected C2C12 cells; details: 500 μg/ml G-418, 11 days
Experimental: The Bcl-2 promoter-neo vector was prepared by using HindIII and MluI to excise the RSV promoter of pRSVneo (Gorman et al., Science 221:551-553 (1983)), after which an ˜2.6 kb PstI fragment of the human Bcl-2 promoter region (plasmid LB124; Chen et al., Mol. Cell. Biol. 15, 3840-3847 (1995)) was blunt-end ligated to the promotorless neo plasmid. C2C12 cells were transfected with Bcl-2-neo or pSV2neo using LIPOFECTAMINE™ (3:1 (w/w) 2,3-dioleyloxy-N-[2(spermine-carboxamido)ethyl]-N,N-dimethyl-1-propanaminiumtrifluoroacetate and dioleoyl phosphatidylethanolamine) (Gibco-BRL) and selected with G-418 (Dominov et al., Dev. Genet. 19, 108-118 (1996)).
To determine whether Bcl-2-expressing cells could function as stem cells, the differentiation of modified C2C12 cells that were selected based on their ability to express a Bcl-2 promoter fragment was examined. C2C12 cells were transfected with a plasmid in which expression of neomycin phosphotransferase was under the control of an ˜2.6 kb fragment of the human Bcl-2 promoter (Chen and Boxer, Mol. Cell. Biol. 15, 3840-3847 (1995)). From these transfections, four independent G-418-resistant lines (termed Bcl-2-neo cells) were isolated. […] In contrast, this treatment killed all untransfected C2C12 control cells and had no effect on C2C12 cells transfected with the ubiquitously expressed pSV2neo (FIG. 4). When transferred to fresh growth medium without G-418, the selected Bcl-2-neo cells resumed proliferation (FIG. 4) and were able to form multinucleate myotubes when switched to differentiation medium at confluence (not shown).

[2] = tested on: C2C12 cells; experiment: Percentage of Bcl-2-expressing cells after apoptosis induction (immunostaining); details: serum-free medium with staurosporine; increased from less than 20%
Experimental: Apoptosis was induced by transferring the cells to serum-free differentiation medium, with or without 0.5 μM staurosporine, and cell viability was measured by the MTT assay of mitochondrial function (Jacobsen et al., EMBO J. 13, 1899-1910 (1994)).
The hamster mAb, 3 F11, is specific for mouse Bcl-2 (Krajewski et al., Cancer Res. 53, 4701-4714 (1993)) and was used at 25 μg/ml.

[3] = tested on: C2C12 cells; experiment: MTT assay of mitochondrial function (cell viability) after apoptosis induction; details: serum-free medium with 0.5 μM staurosporine, compared to growth medium or 2% HS; 1-2 days
Experimental: C2C12 and Sol8 cells were maintained in growth medium (DMEM with 15% fetal bovine serum, 2 mM L-glutamine, 10 mM HEPES, pH 7.4, and 100 U/ml penicillin) and induced to form myotubes in differentiation medium (growth medium with 2% horse serum in place of fetal bovine serum) (Yaffe et al., Nature 270, 725-727 (1977); Blau et al., Science 230, 758-766 (1985); and Montarras et al., New Biologist 3, 592-600 (1991)). […] Apoptosis was induced by transferring the cells to serum-free differentiation medium, with or without 0.5 μM staurosporine, and cell viability was measured by the MTT assay of mitochondrial function (Jacobsen et al., EMBO J. 13, 1899-1910 (1994)).
In this experiment, apoptosis was induced and Bcl-2 expression, cell viability, and differentiation capability were examined in cultures of myogenic cells.

Row | SMILES | effect on C2C12 cells carrying neo under SV40 promoter (pSV2neo) [1] | survival of C2C12 cells carrying Bcl-2 promoter-neo fusion gene (Bcl-2-neo) [1] | survival of untransfected C2C12 cells (control) [1] | percentage of muscle stem cells in the population [2] | number of viable C2C12 cells [3]
1 | CN[C@@H]1[C@@H](O)[C@@H](O[C@@H]2[C@@H](O)[C@H](O[C@H]3O[C@H]([C@@H](C)O)[C@@H](O)[C@H](O)[C@H]3N)[C@@H](N)C[C@H]2N)OC[C@]1(C)O [G-418] | no effect | a portion of C2C12 cells that carry a Bcl-2 promoter-neo fusion gene (Bcl-2-neo) survived; also recorded: a portion of the cells remained viable | killed all |  | 
2 | CN[C@@H]1C[C@H]2O[C@@](C)([C@@H]1OC)n1c3ccccc3c3c4c(c5c6ccccc6n2c5c31)C(=O)NC4 [staurosporine] |  |  |  | 50-80% | greatly reduced; also recorded: decreased
